Reference: US20220409620A1, “REDUCING IMMUNOGENICITY TO PEGLOTICASE” (Horizon Pharma Rheumatology LLC, priority 2016, published 2022)

Test system: adult patients with uncontrolled gout
Experiment: Patient and physician global assessment of gout, open-label study
Format: in vivo, human
Conditions: Methotrexate Baseline, mITT Population
Excerpt: Patient Global Assessment: The patient global assessment was collected at the Screening and Week −4 (prior to the first dose of MTX) Visits during the MTX Run-in Period; prior to KXX infusion at the Day 1 and Weeks 14, 24 and 36 Visits during the KXX+MTX Period; at the End of Pegloticase Infusions Visit (if applicable); the Week 52/End of Study/Early Termination Visit and the Post Treatment Periods 3 and 6 Month Follow-up Visits.
Physician Global Assessment: The physician global assessment was collected at the Screening and Week −4 or week −6 (prior to the first dose of MTX) Visits during the MTX Run-in Period for the open-label and randomized studies, respectively; prior to pegloticase infusion at the Day 1 and Weeks 14, 24 and 36 Visits, and the Day 1 and week 6, 14, 20, 24, 30, 36, and 44 visits during the Pegloticase+IMM Period for the open-label and randomized studies, respectively; at the End of Pegloticase Infusions Visit (if applicable), the Week 52/End of Study/Early Termination Visit and the Post Treatment Periods 3 and 6 Month Follow-up Visits (open-label study).

[1] = End of Pegloticase Infusions Visit

## pegloticase
Day 1
  Patient Global Assessment of Gout, Change from Baseline, Mean (SD): 0.2 (1.85)
  Patient Global Assessment of Gout, Change from Baseline, Median: 0.0
  Patient Global Assessment of Gout, Observed, Mean (SD): 5.8 (1.76)
  Patient Global Assessment of Gout, Observed, Median: 6.0
  Physician Global Assessment of Gout, Change from Baseline, Mean (SD): −0.1 (2.35)
  Physician Global Assessment of Gout, Change from Baseline, Median: 0.0
  Physician Global Assessment of Gout, Observed, Mean (SD): 6.0 (2.45)
  Physician Global Assessment of Gout, Observed, Median: 7.0
Early Termination Visit
  Patient Global Assessment of Gout, Change from Baseline, Mean (SD): 0.7 (2.89)
  Patient Global Assessment of Gout, Change from Baseline, Median: −1.0
  Patient Global Assessment of Gout, Observed, Mean (SD): 5.7 (3.06)
  Patient Global Assessment of Gout, Observed, Median: 5.0
  Physician Global Assessment of Gout, Change from Baseline, Mean (SD): −2.7 (2.08)
  Physician Global Assessment of Gout, Change from Baseline, Median: −2.0
  Physician Global Assessment of Gout, Observed, Mean (SD): 3.7 (2.08)
  Physician Global Assessment of Gout, Observed, Median: 3.0
[1]
  Patient Global Assessment of Gout, Change from Baseline, Mean (SD): −4.0 (4.24)
  Patient Global Assessment of Gout, Change from Baseline, Median: −4.0
  Patient Global Assessment of Gout, Observed, Mean (SD): 2.0 (2.83)
  Patient Global Assessment of Gout, Observed, Median: 2.0
  Physician Global Assessment of Gout, Change from Baseline, Mean (SD): −7.0 (0.00)
  Physician Global Assessment of Gout, Change from Baseline, Median: −7.0
  Physician Global Assessment of Gout, Observed, Mean (SD): 0.5 (0.71)
  Physician Global Assessment of Gout, Observed, Median: 0.5
Week 14
  Patient Global Assessment of Gout, Change from Baseline, Mean (SD): −2.5 (2.77)
  Patient Global Assessment of Gout, Change from Baseline, Median: −2.5
  Patient Global Assessment of Gout, Observed, Mean (SD): 3.1 (2.27)
  Patient Global Assessment of Gout, Observed, Median: 3.0
  Physician Global Assessment of Gout, Change from Baseline, Mean (SD): −4.2 (2.22)
  Physician Global Assessment of Gout, Change from Baseline, Median: −5.0
  Physician Global Assessment of Gout, Observed, Mean (SD): 1.9 (1.64)
  Physician Global Assessment of Gout, Observed, Median: 2.0
Week 24
  Patient Global Assessment of Gout, Change from Baseline, Mean (SD): −3.7 (3.23)
  Patient Global Assessment of Gout, Change from Baseline, Median: −3.0
  Patient Global Assessment of Gout, Observed, Mean (SD): 2.0 (1.79)
  Patient Global Assessment of Gout, Observed, Median: 3.0
  Physician Global Assessment of Gout, Change from Baseline, Mean (SD): −5.3 (2.10)
  Physician Global Assessment of Gout, Change from Baseline, Median: −6.0
  Physician Global Assessment of Gout, Observed, Mean (SD): 0.8 (0.87)
  Physician Global Assessment of Gout, Observed, Median: 1.0
Week 36
  Patient Global Assessment of Gout, Change from Baseline, Mean (SD): −3.4 (2.92)
  Patient Global Assessment of Gout, Change from Baseline, Median: −4.0
  Patient Global Assessment of Gout, Observed, Mean (SD): 2.1 (2.80)
  Patient Global Assessment of Gout, Observed, Median: 1.0
  Physician Global Assessment of Gout, Change from Baseline, Mean (SD): −5.9 (2.03)
  Physician Global Assessment of Gout, Change from Baseline, Median: −6.0
  Physician Global Assessment of Gout, Observed, Mean (SD): 0.7 (1.00)
  Physician Global Assessment of Gout, Observed, Median: 0.0
Week 52/ET
  Patient Global Assessment of Gout, Change from Baseline, Mean (SD): −4.3 (0.58)
  Patient Global Assessment of Gout, Change from Baseline, Median: −4.0
  Patient Global Assessment of Gout, Observed, Mean (SD): 1.0 (1.00)
  Patient Global Assessment of Gout, Observed, Median: 1.0
  Physician Global Assessment of Gout, Change from Baseline, Mean (SD): −7.3 (0.58)
  Physician Global Assessment of Gout, Change from Baseline, Median: −7.0
  Physician Global Assessment of Gout, Observed, Mean (SD): 1.0 (0.00)
  Physician Global Assessment of Gout, Observed, Median: 1.0
